Experiments:
cathepsin L = molecular target: T1, cathepsin L (Homo sapiens, UniProt P07711); assay: Cathepsin L enzyme inhibition in vitro (kinetic fluorescence assay); format: biochemical; conditions: cathepsin L isolated from human liver vs calpain I
T1 construct: cathepsin L—isolated from human liver (Calbiochem #219402); purchased Calbiochem 219402; host or cells: human liver (tissue-derived)
Procedure: (§1) The following solutions and buffers were employed: • HBS (for 40 ml): 800 μl M HEPES; 2.16 ml 100 mM KCl; 4.8 ml 1M NaCl; 3.59 ml 5% glucose; 60 μl μM MgSO4; 400 μl 100 mM Na pyruvate, 28.19 ml water; pH 7.2-7.5. • lysis buffer (for 20 ml): 400 μl M Tris pH 8.2; 2.74 ml 1M NaCl; 520 μl 0.5M EDTA; 2 ml 10% triton X-100; 0.8 ml (=1:25) CompletePlus (1 tablet/2 ml H2O); 200 μl 100 mM Pefabloc; 13.34 ml water, pH 8.2. • TBST (10×) (for 1 l): 100 mM Tris (12.1 g); 1.5M NaCl (87 g); 1% Tween 20 (10 g), adjusted to pH 8. I Enzyme Inhibition In Vitro: • Testing for blockade of the corresponding enzymic activities was carried out by means of kinetic fluorescence assays (excitation 390 nm, emission 460 nm). • Apparent Ki values were calculated from the experimentally determined IC50 values by the Cheng-Prussoff relation assuming a reversible competitive enzyme inhibition. The Km values of the substrates used under the assay conditions indicated above were: 90 μM (Z-Phe-Arg-AMC, cathepsin B), 10 μM (Z-Gly-Pro-Arg-AMC, cathepsin K), 2 μM (Z-Phe-Arg-AMC, cathepsin L), and 30 μM (Z-Val-Val-Arg-AMC, cathepsin S). • The indicated Ki values are averages of the inhibition constants calculated on the basis of 2 to 4 independent dose-effect plots.
(§2) The following assays were used: • 1. Calpain I: • 20 nM calpain-I—isolated from human erythrocytes (Calbiochem #208713), 100 μM Suc-Leu-Tyr-AMC (Bachem #1-1355) as substrate in buffer with 62 mM imidazole, 0.3 mM CaCl2, 0.10% CHAPS, 0.05% BSA, 1 mM DTT at pH 7.3 and room temperature. • 2. Cathepsin B: • 0.25 nM cathepsin B—isolated from human liver (Calbiochem #219362), 100 μM Z-Phe-Arg-AMC (Bachem #I-1160) as substrate 50 mM MES, 2 mM EDTA, 0.05% Brij 35, 2.5 mM L-cysteine, pH 6.0, room temperature. • 3. Cathepsin K: • 3 nM cathepsin K—activated from recombinant human procathepsin K from E. coli (Calbiochem #342001), 10 μM Z-Gly-Pro-Arg-AMC (Biomol #P-142) as substrate in 50 mM MES, 2 mM EDTA, 0.05% Brij 35, 2.5 mM L-cysteine, pH 6.0, room temperature. • 4. Cathepsin L: • 1 nM cathepsin L—isolated from human liver (Calbiochem #219402), 2 μM Z-Phe-Arg-AMC (Bachem #1-1160) as substrate in 50 mM MES, 2 mM EDTA, 0.05% Brij 35, 2.5 mM L-cysteine, pH 6.0, room temperature. • 5. Cathepsin S: • 0.5 nM recombinant human cathepsin S from E. coli (Calbiochem #219343), 20 μM Z-Val-Val-Arg-AMC (Bachem #1-1540) as substrate in 50 mM MES, 2 mM EDTA, 0.05% Brij 35, 2.5 mM L-cysteine, pH 6.0, room temperature. • The results of the in vitro determination are indicated in Table 1. The following abbreviations are used in Table 1: • The “Calpain activity” column, ++ stands for a calpain Ki (Ki(calpain)) of ≦40 nM and + means: 40 nM<Ki(Calpain)≦100 nM. • The “Sel. cat. B” column indicates the Ki(cathepsin B)/Ki(calpain) ratio. In this connection, ++ means a Ki(cathepsin B)/Ki(calpain) ratio of ≧30 and + means 10≦Ki(cathepsin B)/Ki(calpain)<30. • The “Sel. cat. K” column indicates the Ki(cathepsin K)/Ki(calpain) ratio. In this connection, ++ means a Ki(cathepsin K)/Ki(calpain) ratio of ≧30 and + means 10≦Ki(cathepsin K)/Ki(calpain)<30. • The “Sel. cat. L” column indicates the Ki(cathepsin L)/Ki(calpain) ratio. In this connection, ++ means a Ki(cathepsin L)/Ki(calpain) ratio of ≧50 and + means 30≦Ki(cathepsin L)/Ki(calpain)<50. • The “Sel. cat. S” column indicates the Ki(cathepsin S)/Ki(calpain) ratio. In this connection, ++ means a Ki(cathepsin S)/Ki(calpain) ratio of ≧100 and + means 50≦Ki(cathepsin S)/Ki(calpain)<100.

cathepsin S = molecular target: T2, cathepsin S (Homo sapiens, UniProt P25774); assay: Cathepsin S enzyme inhibition in vitro (kinetic fluorescence assay); format: biochemical; conditions: recombinant human cathepsin S vs calpain I
T2 construct: purchased Calbiochem 219343; host or cells: E. coli
T2 sequence (P25774 115-331): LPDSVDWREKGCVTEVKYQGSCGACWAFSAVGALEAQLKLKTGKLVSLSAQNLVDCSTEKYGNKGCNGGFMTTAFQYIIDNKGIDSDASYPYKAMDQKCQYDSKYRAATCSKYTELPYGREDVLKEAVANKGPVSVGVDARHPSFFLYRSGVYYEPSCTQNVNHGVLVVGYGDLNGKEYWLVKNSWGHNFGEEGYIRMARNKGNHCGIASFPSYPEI
Procedure: as §1, §2

T1 sequence (P07711 114-333): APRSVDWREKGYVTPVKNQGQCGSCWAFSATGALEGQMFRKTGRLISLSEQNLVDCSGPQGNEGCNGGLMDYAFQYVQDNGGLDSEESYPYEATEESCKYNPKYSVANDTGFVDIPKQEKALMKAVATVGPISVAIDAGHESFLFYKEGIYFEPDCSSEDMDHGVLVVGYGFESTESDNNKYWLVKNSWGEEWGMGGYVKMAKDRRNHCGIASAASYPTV

SMILES | Sel cat. L: Ki(cathepsin L)/Ki(calpain) ratio (cathepsin L) | Sel cat. S: Ki(cathepsin S)/Ki(calpain) ratio (cathepsin S)
Cl.NC(=O)C(=O)C(Cc1ccccc1)NC(=O)c1cccnc1-n1cnc(-c2ccc(C(F)(F)F)cc2)c1 (centres unmarked) [Example 18, N-(3-Amino-1-benzyl-2,3-dioxopropyl)-2-{4-[4-(trifluoromethyl)phenyl]-1H-imidazol-1-yl}nicotinamide hydrochloride] | + (+ means 30≦Ki(cathepsin L)/Ki(calpain)<50) | ++ (++ means a Ki(cathepsin S)/Ki(calpain) ratio of ≧100)
CCCCC(NC(=O)c1cccnc1-n1ccc(-c2cccc(N3CCOCC3)c2)n1)C(=O)C(N)=O (centres unmarked) [Example 59, N-{1-[Amino(oxo)acetyl]pentyl}-2-[3-(3-morpholin-4-ylphenyl)-1H-pyrazol-1-yl]nicotinamide] | ++ (++ means a Ki(cathepsin L)/Ki(calpain) ratio of ≧50) | + (+ means 50≦Ki(cathepsin S)/Ki(calpain)<100)
NC(=O)C(=O)C(Cc1ccccc1)NC(=O)c1cccnc1-n1cnc(-c2ccc(Cl)cc2)c1 (centres unmarked) [Example 9, N-(3-Amino-1-benzyl-2,3-dioxopropyl)-2-[4-(4-chlorophenyl)-1H-imidazol-1-yl]nicotinamide] | + (+ means 30≦Ki(cathepsin L)/Ki(calpain)<50) | ++ (++ means a Ki(cathepsin S)/Ki(calpain) ratio of ≧100)
NC(=O)C(=O)C(Cc1ccccc1)NC(=O)c1ccccc1-n1ccc(-c2ccccc2)n1 (centres unmarked) [Example 106, N-[3-Amino-2,3-dioxo-1-(phenylmethyl)propyl]-2-(3-phenyl-1H-pyrazol-1-yl)benzamide] | + (+ means 30≦Ki(cathepsin L)/Ki(calpain)<50) | ++ (++ means a Ki(cathepsin S)/Ki(calpain) ratio of ≧100)
COc1ccc(-c2cn(-c3ncccc3C(=O)NC(Cc3ccccc3)C(=O)C(N)=O)cn2)cc1 (centres unmarked) [Example 13, N-(3-Amino-1-benzyl-2,3-dioxopropyl)-2-[4-(4-methoxyphenyl)-1H-imidazol-1-yl]nicotinamide] | ++ (++ means a Ki(cathepsin L)/Ki(calpain) ratio of ≧50) | + (+ means 50≦Ki(cathepsin S)/Ki(calpain)<100)
CCCCC(NC(=O)c1cccnc1-n1cnc(-c2ccc(C(F)(F)F)cc2)c1)C(=O)C(N)=O.Cl (centres unmarked) [Example 17, N-{1-[Amino(oxo)acetyl]pentyl}-2-{4-[4-(trifluoromethyl)phenyl]-1H-imidazol-1-yl}nicotinamide hydrochloride] | ++ (++ means a Ki(cathepsin L)/Ki(calpain) ratio of ≧50) | + (+ means 50≦Ki(cathepsin S)/Ki(calpain)<100)
NC(=O)C(=O)C(Cc1cccs1)NC(=O)c1cccnc1-n1ccc(-c2ccc(F)cc2)n1 (centres unmarked) [Example 57, N-[3-Amino-2,3-dioxo-1-(2-thienylmethyl)propyl]-2-[3-(4-fluorophenyl)-1H-pyrazol-1-yl]nicotinamide] | ++ (++ means a Ki(cathepsin L)/Ki(calpain) ratio of ≧50) | ++ (++ means a Ki(cathepsin S)/Ki(calpain) ratio of ≧100)
NC(=O)C(=O)C(Cc1ccccc1)NC(=O)c1cccnc1-n1cc(COc2ccccc2)c(-c2ccc(F)cc2)n1 (centres unmarked) [Example 179, N-[3-Amino-2,3-dioxo-1-(phenylmethyl)propyl]-2-{3-(4-fluorophenyl)-4-[(phenyloxy)methyl]-1H-pyrazol-1-yl}pyridine-3-carboxamide] | + (+ means 30≦Ki(cathepsin L)/Ki(calpain)<50) | ++ (++ means a Ki(cathepsin S)/Ki(calpain) ratio of ≧100)
CCCCC(NC(=O)c1cccnc1-n1ccc(-c2ccc(OC)cc2)n1)C(=O)C(N)=O (centres unmarked) [Example 49, N-{1-[Amino(oxo)acetyl]pentyl}-2-[3-(4-methoxyphenyl)-1H-pyrazol-1-yl]nicotinamide] | + (+ means 30≦Ki(cathepsin L)/Ki(calpain)<50) | ++ (++ means a Ki(cathepsin S)/Ki(calpain) ratio of ≧100)
N#Cc1ccc(-c2ccn(-c3ncccc3C(=O)NC(Cc3ccccc3)C(=O)C(N)=O)n2)cc1 (centres unmarked) [Example 62, N-(3-Amino-1-benzyl-2,3-dioxopropyl)-2-[3-(4-cyanophenyl)-1H-pyrazol-1-yl]nicotinamide] | ++ (++ means a Ki(cathepsin L)/Ki(calpain) ratio of ≧50) | ++ (++ means a Ki(cathepsin S)/Ki(calpain) ratio of ≧100)
NC(=O)C(=O)C(Cc1ccccc1)NC(=O)c1cccnc1-n1cc2c(n1)-c1ccccc1OCC2 (centres unmarked) [Example 141, N-[3-Amino-2,3-dioxo-1-(phenylmethyl)propyl]-2-(4,5-dihydro-2H-[1]benzoxepino[5,4-c]pyrazol-2-yl)pyridine-3-carboxamide] | ++ (++ means a Ki(cathepsin L)/Ki(calpain) ratio of ≧50) | ++ (++ means a Ki(cathepsin S)/Ki(calpain) ratio of ≧100)
NC(=O)C(=O)C(Cc1ccccc1)NC(=O)c1cccnc1-n1ccc(-c2ccc(Cl)cc2)n1 (centres unmarked) [Example 39, N-(3-Amino-1-benzyl-2,3-dioxopropyl)-2-[3-(4-chlorophenyl)-1H-pyrazol-1-yl]nicotinamide] | ++ (++ means a Ki(cathepsin L)/Ki(calpain) ratio of ≧50) | ++ (++ means a Ki(cathepsin S)/Ki(calpain) ratio of ≧100)
CCCCC(NC(=O)c1cccnc1-n1cnc(-c2ccccc2)c1)C(=O)C(N)=O (centres unmarked) [Example 2, N-{1-[Amino(oxo)acetyl]pentyl}-2-(4-phenyl-1H-imidazol-1-yl)nicotinamide] | ++ (++ means a Ki(cathepsin L)/Ki(calpain) ratio of ≧50) | –
NC(=O)C(=O)C(Cc1ccccc1)NC(=O)c1cccnc1-n1cc2ccccc2n1 (centres unmarked) [Example 78, N-(3-Amino-1-benzyl-2,3-dioxopropyl)-2-(2H-indazol-2-yl)nicotinamide] | ++ (++ means a Ki(cathepsin L)/Ki(calpain) ratio of ≧50) | + (+ means 50≦Ki(cathepsin S)/Ki(calpain)<100)
CCCCC(NC(=O)c1cccnc1-n1cnc(-c2ccc(N3CCOCC3)cc2)c1)C(=O)C(N)=O.Cl (centres unmarked) [Example 15, N-{1-[Amino(oxo)acetyl]pentyl}-2-[4-(4-morpholin-4-ylphenyl)-1H-imidazol-1-yl]nicotinamide hydrochloride] | ++ (++ means a Ki(cathepsin L)/Ki(calpain) ratio of ≧50) | + (+ means 50≦Ki(cathepsin S)/Ki(calpain)<100)
